Laboratory results from patent publication US7351731B2, “Azole derivatives and methods for making the same” (Board of Governors for Higher Education, State of Rhode …, priority 2005, dated 2008).
Values after ≈ are worked out from the molar mass of the structure shown.

Legend:
C. neoformans ATCC 66031 = assay: MIC microdilution susceptibility testing, C. neoformans in SDB; format: cell-based, Cryptococcus neoformans; details: SDB medium, 35-37° C., 24-48 h, average of three experiments; for MIC: Cryptococcus neoformans, ATCC66031
Experimental: (§1) Microorganisnis. […] Stock cultures were kept on Sabouraud dextrose agar (SDA; Becton-Dickinson and Co., Sparks, Md.). Subcultures were prepared on SDA at 35-37° C. Suspension cultures were prepared by inoculation of single colonies in 7 ml of normal saline solution.
(§2) Test compounds were dissolved in DMSO (0.56 mg/ml) and stored at 0° C. Working dilutions were made in RPMI or SDB medium. […] The final maximum concentration of DMSO in the assays was 5% (v/v).
(§3) Microdilutions for control experiments with C. albicans, A. niger, and C. neoformans were the modified method of National Committee for Clinical Laboratory Standards (NCCLS) method as described by Galgiani and by the more recent NCCLS M27-A microdilution methods as described previously. Galgiani, J. N. Antimicrob. Agents Chemother. […] Reference method for broth dilution antifungal susceptibility testing for yeasts. Approval standard. […] 9; C. arballeira, N. M., et al. Arch. Pharm.-Pharm. […] Dilutions were prepared in 0.1 ml of RPMI or SDB; the inocula were either 10^4 C. albicans or C. neoformans cells or A. niger spores. The tubes were incubated for 24-48 h at 36±1° C., and turbidity was read visually.

C. albicans ATCC 14053 [1] = assay: MIC microdilution susceptibility testing, C. albicans in SDB; format: cell-based, Candida albicans; details: 24-48 h, average of three experiments; for MIC: Candida albicans
Experimental: as §1, §2, §3

A. niger ATCC 16404 = assay: MIC microdilution susceptibility testing, A. niger in SDB; format: cell-based, Aspergillus niger; details: SDB medium, 35-37° C., 24-48 h, average of three experiments; for MIC: Aspergillus niger, ATCC16404
Experimental: as §1, §2, §3

C. albicans ATCC 14053 [2] = assay: MIC microdilution susceptibility testing, C. albicans in RPMI; format: cell-based, Candida albicans; details: for MIC: Candida albicans
Experimental: as §1, §2, §3

[3] = RPMI medium pH 6.9, 35-37° C., 24-48 h, average of three experiments
[4] = ATCC14053, pH 5.6, SDB medium pH 5.6, 35-37° C.
[5] = ATCC14053, RPMI medium pH 6.9, 35-37° C., 24-48 h, average of three experiments, read-out: MIC C. albicans ATCC 14053, RPMI

Row | MIC (C. neoformans ATCC 66031) [µg/mL] | MIC (C. albicans ATCC 14053 [1]; [4]) [µg/mL] | MIC (A. niger ATCC 16404) [µg/mL] | MIC (C. albicans ATCC 14053 [2]; [5]) [µg/mL] | SMILES | MIC C. neoformans ATCC 66031, SDB (C. neoformans ATCC 66031) | MIC C. albicans ATCC 14053, SDB (C. albicans ATCC 14053 [1]; SDB medium pH 5.6, 35-37° C.) | MIC A. niger ATCC 16404, SDB (A. niger ATCC 16404) | MIC C. albicans ATCC 14053, RPMI (C. albicans ATCC 14053 [2]; [3]) | MIC (C. albicans ATCC 14053 [1]; ATCC14053, SDB medium pH 5.6, 35-37° C.) [µg/mL] | MIC (C. albicans ATCC 14053 [2]; ATCC14053, pH 6.9, read-out: MIC C. albicans ATCC 14053, RPMI) [µg/mL]
1 |  |  |  |  | CCCCCCCCCCC(Br)C(=O)OC(Cn1cncn1)(Cn1cncn1)c1ccc(F)cc1F (centres unmarked) [Compound 1h, O-2-Bromolauroylfluconazole] | 1,466 μg/mL | 1,466 μg/mL | ≧1,466 μg/mL | 1,466 μg/mL |  | 
2 | 339 (≈ 1050 µM) | 1860 (≈ 5780 µM) | > 3730 |  | Fc1ccc(C(S)(Cn2cncn2)Cn2cncn2)c(F)c1 [SH] |  |  |  |  |  | 
3 |  |  |  |  | CC(Br)C(=O)OC(Cn1cncn1)(Cn1cncn1)c1ccc(F)cc1F (centres unmarked) [Compound 1c, O-2-Bromopropionylfluconazole] | 656 µg/mL (≈ 1490 µM) | 656 µg/mL (≈ 1490 µM) | >656 µg/mL | 656 µg/mL (≈ 1490 µM) |  | 
4 |  |  |  |  | CCCCC(Br)C(=O)OC(Cn1cncn1)(Cn1cncn1)c1ccc(F)cc1F (centres unmarked) [Compound 1f, O-2-Bromohexanoylfluconazole] | 492 µg/mL (≈ 1020 µM) | 492 µg/mL (≈ 1020 µM) | ≧979 μg/mL | 61 µg/mL (≈ 126 µM) |  | 
5 |  |  |  |  | C[C@@H]1[C@H](O)[C@@H](C)/C=C/C=C/C=C/C=C/C=C/C=C/C=C/[C@H](O[C@@H]2O[C@H](C)[C@@H](O)[C@H](N)[C@@H]2O)C[C@@H]2O[C@](O)(C[C@@H](O)C[C@@H](O)[C@H](O)CC[C@@H](O)C[C@@H](O)CC(=O)O[C@H]1C)C[C@H](O)[C@H]2C(=O)O [AMB, amphotericin B, reference compound] |  | 1.5 µg/mL (≈ 1.62 µM) | 0.4 µg/mL (≈ 0.433 µM) | 0.7 µg/mL (≈ 0.758 µM) |  | 
6 | 19 (≈ 57.4 µM) | > 610 | 610 (≈ 1840 µM) | > 610 | [N-]=[N+]=NC(Cn1cncn1)(Cn1cncn1)c1ccc(F)cc1F [Compound N3] |  |  |  |  |  | 
7 | 15 (≈ 48.8 µM) | > 540 | 68 (≈ 221 µM) | 12 (≈ 39.1 µM) | CCCCCCCCCCCCC(Br)C(=O)O (centres unmarked) [2-Bromomyristic acid, reference compound] |  |  |  |  |  | 
8 |  |  |  |  | O=C(OC(Cn1cncn1)(Cn1cncn1)c1ccc(F)cc1F)c1ccccc1O [Compound 1l, O-Salicylfluconazole] | >1,212 μg/mL | >1,212 μg/mL | >1,212 μg/mL | ≧1,212 μg/mL |  | 
9 |  |  |  |  | CCC(Br)C(=O)OC(Cn1cncn1)(Cn1cncn1)c1ccc(F)cc1F (centres unmarked) [Compound 1d, O-2-Bromobutyrylfluconazole] | >1,276 μg/mL | 636 µg/mL (≈ 1400 µM) | ≧1,276 μg/mL | 319 µg/mL (≈ 701 µM) |  | 
10 | 28 (≈ 162 µM) | 87 (≈ 505 µM) | 87 (≈ 505 µM) |  | CCCCCCCCCCCO [Compound 1-Undecanol, 1-Undecanol, reference compound] |  |  |  |  |  | 
11 |  | 99 (≈ 575 µM) | < 12 | 791 (≈ 4590 µM) | CCCCCCCCCC(=O)O [Decanoic acid, reference compound] |  |  |  |  |  | 
12 | 290 (≈ 1600 µM) | 578 (≈ 3190 µM) | ≥ 578 | ≥ 578 | CCCC(Br)C(=O)O (centres unmarked) [2-Bromovaleric acid, reference compound] |  |  |  |  |  | 
13 | 2.4 (≈ 7.84 µM) | ≥ 4440 | > 580 | 2.3 (≈ 7.51 µM) | OC(Cn1cncn1)(Cn1cncn1)c1ccc(F)cc1F [FLC, 1,3-bis(1H-1,2,4-triazol-1-yl)-2-(2,4-difluorophenyl)-propan-2-ol, reference compound] |  |  |  |  |  | 
14 | 22 (≈ 59.6 µM) | > 701 | 701 (≈ 1900 µM) | 701 (≈ 1900 µM) | Fc1ccc(C(Br)(Cn2cncn2)Cn2cncn2)c(F)c1 [Br] |  |  |  |  |  | 
15 |  |  |  |  | C=CCCCCCCCCCO [ω-Undecylenyl alcohol, reference compound] | 14 µg/mL (≈ 82.2 µM) | 110 µg/mL (≈ 646 µM) | 27 µg/mL (≈ 159 µM) |  |  | 
16 | 117 | 468 | 468 | 468 | CC(Br)C(=O)Cl (centres unmarked) [2-Bromopropionyl chloride, reference compound] |  |  |  |  |  | 

Row | SMILES | MIC (C. neoformans ATCC 66031) [µg/mL] | MIC (C. albicans ATCC 14053 [1]; [4]) [µg/mL] | MIC (A. niger ATCC 16404) [µg/mL] | MIC (C. albicans ATCC 14053 [2]; [5]) [µg/mL] | MIC C. neoformans ATCC 66031, SDB (C. neoformans ATCC 66031) | MIC C. albicans ATCC 14053, SDB (C. albicans ATCC 14053 [1]; SDB medium pH 5.6, 35-37° C.) | MIC A. niger ATCC 16404, SDB (A. niger ATCC 16404) | MIC C. albicans ATCC 14053, RPMI (C. albicans ATCC 14053 [2]; [3]) | MIC (C. albicans ATCC 14053 [1]; ATCC14053, SDB medium pH 5.6, 35-37° C.) [µg/mL] | MIC (C. albicans ATCC 14053 [2]; ATCC14053, pH 6.9, read-out: MIC C. albicans ATCC 14053, RPMI) [µg/mL]
17 | CCC(Br)C(=O)O (centres unmarked) [2-Bromobutyric acid, reference compound] | > 513 |  |  |  |  |  |  |  | > 513 | 513 (≈ 3070 µM)
